The structures appear in SMILES notation. Active and inactive are the calls of the source.

Assay [1] has as its target T1, Endoribonuclease toxin MazF (Escherichia coli K-12, UniProt P0AE70).
T1 sequence (P0AE70 whole entry): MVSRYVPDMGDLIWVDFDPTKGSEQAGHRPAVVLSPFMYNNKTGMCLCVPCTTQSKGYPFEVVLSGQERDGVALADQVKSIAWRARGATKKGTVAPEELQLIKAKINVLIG
Kind of assay: MazF toxin RNase activators, dose response, biochemical, fluorescence, single-stranded RNA substrate, uHTS hits (AID 588481). Format: functional.

For assay [2], the target named is T1, Endoribonuclease toxin MazF. As to the kind of experiment: fluorescent RNA oligo signal without MazF, dose response, counter-screen for MazEF activator project, biochemical, fluorescence, single-stranded RNase substrate (AID 588502). The class given is functional.
The target in another assay is NS3 (Hepatitis C virus, UniProt A3EZJ3). As to the kind of experiment: PubChem AID 2173. Also on record: species or system Hepacivirus hominis.
NS3, sequence (A3EZJ3 whole entry): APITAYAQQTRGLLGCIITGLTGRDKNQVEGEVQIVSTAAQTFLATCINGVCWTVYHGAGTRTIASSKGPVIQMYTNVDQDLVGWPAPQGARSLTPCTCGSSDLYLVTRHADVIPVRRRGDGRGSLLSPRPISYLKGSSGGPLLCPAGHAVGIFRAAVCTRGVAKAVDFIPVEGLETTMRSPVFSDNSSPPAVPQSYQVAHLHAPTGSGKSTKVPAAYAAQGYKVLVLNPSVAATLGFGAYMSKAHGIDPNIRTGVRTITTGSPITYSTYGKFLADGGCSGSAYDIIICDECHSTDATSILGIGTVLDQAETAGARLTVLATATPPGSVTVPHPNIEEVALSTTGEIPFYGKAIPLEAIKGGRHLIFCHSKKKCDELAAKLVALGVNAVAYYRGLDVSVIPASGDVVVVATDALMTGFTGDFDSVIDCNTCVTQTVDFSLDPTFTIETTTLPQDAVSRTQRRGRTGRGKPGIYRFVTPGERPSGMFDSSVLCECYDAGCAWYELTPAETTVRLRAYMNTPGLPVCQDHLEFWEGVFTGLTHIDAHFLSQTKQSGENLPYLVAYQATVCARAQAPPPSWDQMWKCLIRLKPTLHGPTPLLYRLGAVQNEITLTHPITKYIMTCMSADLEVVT
In assay [3] the target is T2, Low molecular weight phosphotyrosine protein phosphatase (Homo sapiens, UniProt P24666).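 Also: Dose-response confirmation assay measuring inhibition of LMPTP enzyme activity by fluorescence intensity read-out.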
T2 sequence (P24666 whole entry): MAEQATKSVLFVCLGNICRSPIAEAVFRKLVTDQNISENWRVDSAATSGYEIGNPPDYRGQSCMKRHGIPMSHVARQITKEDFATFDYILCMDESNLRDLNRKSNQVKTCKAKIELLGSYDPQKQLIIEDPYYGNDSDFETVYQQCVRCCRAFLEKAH
Format: functional. The note with it: read-out: IC50_Mean.

In a further assay the target is DNA topoisomerase (Yersinia pestis, UniProt A0A2S9PM60). Kind of assay: Y. pestis Topo-I inhibitors, cleavage product readout, dose response, biochemical, cherry-pick (AID 588525).
DNA topoisomerase, sequence (A0A2S9PM60 whole entry): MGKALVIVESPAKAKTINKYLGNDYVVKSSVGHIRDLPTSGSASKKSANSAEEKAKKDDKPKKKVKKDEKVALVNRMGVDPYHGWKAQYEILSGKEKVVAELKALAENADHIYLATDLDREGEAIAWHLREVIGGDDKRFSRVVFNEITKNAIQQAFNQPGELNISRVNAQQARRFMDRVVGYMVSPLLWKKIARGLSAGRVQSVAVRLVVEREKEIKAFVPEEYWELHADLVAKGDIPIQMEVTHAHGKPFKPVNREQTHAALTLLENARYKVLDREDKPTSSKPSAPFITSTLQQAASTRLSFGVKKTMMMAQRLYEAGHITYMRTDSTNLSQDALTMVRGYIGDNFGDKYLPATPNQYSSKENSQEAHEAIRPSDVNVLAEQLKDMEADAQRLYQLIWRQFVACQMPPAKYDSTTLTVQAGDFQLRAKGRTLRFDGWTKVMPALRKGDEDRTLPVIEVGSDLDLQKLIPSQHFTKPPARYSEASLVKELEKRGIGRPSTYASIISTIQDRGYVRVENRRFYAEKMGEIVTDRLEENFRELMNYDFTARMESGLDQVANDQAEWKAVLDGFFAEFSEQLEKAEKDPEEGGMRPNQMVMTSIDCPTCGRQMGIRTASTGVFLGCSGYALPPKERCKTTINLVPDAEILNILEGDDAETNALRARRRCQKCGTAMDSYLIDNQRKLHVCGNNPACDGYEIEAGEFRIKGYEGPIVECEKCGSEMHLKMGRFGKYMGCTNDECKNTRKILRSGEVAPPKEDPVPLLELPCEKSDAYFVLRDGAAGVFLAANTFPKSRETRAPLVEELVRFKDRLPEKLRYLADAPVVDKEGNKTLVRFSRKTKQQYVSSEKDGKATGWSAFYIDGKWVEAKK
Assay [4] concerns the target Type-1 angiotensin II receptor (Homo sapiens, UniProt P30556). As to the kind of experiment: AT1 receptor antagonists, dose response, selectivity assay for APJ receptor antagonist project, cell-based, uHTS hits (AID 463214).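 Also: antagonist potency against angiotensin II stimulated AT1 response.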 Format: functional.
In assay [5] the target is T3, Beta-galactosidase (Escherichia coli, UniProt Q8VNN2). Kind of assay: PubChem AID 485352. Format: functional.
T3 sequence (Q8VNN2 whole entry): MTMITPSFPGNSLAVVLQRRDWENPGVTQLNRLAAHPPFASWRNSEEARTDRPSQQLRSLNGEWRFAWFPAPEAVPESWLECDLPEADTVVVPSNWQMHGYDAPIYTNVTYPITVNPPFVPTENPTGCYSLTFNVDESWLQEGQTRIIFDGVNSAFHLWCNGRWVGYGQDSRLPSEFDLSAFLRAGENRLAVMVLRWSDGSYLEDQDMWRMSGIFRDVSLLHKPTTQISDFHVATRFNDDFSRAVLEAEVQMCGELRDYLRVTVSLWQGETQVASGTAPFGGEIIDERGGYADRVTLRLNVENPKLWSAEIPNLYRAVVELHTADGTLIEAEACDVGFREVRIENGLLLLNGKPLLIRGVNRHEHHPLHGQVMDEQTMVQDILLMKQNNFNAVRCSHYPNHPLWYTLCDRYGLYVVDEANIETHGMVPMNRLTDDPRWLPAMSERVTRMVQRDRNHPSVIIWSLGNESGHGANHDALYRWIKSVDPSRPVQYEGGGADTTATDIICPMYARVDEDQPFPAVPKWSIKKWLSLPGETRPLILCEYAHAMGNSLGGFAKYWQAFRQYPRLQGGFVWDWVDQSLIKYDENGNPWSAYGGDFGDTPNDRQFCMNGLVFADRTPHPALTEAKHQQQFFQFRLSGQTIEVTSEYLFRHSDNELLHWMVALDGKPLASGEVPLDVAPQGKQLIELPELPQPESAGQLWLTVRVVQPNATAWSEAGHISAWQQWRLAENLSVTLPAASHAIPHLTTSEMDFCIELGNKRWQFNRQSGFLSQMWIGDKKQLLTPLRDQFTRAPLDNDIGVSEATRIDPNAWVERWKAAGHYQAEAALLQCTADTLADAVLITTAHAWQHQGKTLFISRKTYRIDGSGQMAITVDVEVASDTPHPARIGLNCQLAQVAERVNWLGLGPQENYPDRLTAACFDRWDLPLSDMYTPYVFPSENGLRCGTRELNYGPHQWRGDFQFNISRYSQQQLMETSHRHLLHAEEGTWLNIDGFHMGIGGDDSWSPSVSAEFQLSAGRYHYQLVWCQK
The test system of the next assay is HeLa. Kind of assay: HeLa cell cytotoxicity, dose response, cytotoxicity control for MITF activator project, CellTiter-Glo luminescence, cherry-pick samples (AID 540259). Particulars: Homo sapiens. The class given is functional, cell-based.
A further assay addresses Beta Lactamase (Pseudomonas aeruginosa, UniProt Q932Y6). Kind of assay: beta-lactamase reporter inhibitor potency, dose response, artefact control for TLR9-MyD88 binding inhibitor project, BLA reporter cells, FRET fluorescence (AID 588341).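 Also: cell based assay in CHO-K1 cells stably expressing beta-lactamase.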 Format: cell-based.
Another assay relates to CHO. Kind of assay: cytotoxicity in TLR9-MyD88 CHO cells, dose response, cytotoxicity control for TLR9-MyD88 binding inhibitor project, cell-based, luminescence (AID 588339).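 Also: CHO cells stably coexpressing TLR9 and MyD88 fusions from primary screen; compound exposure lasted 48 hours before viability readout.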 Format: functional, hamster. The note with it: Cricetulus griseus.
Assay [6] deals with Bifunctional protein GlmU (Mycobacterium tuberculosis, UniProt P9WMN3). As to the kind of experiment: Inhibitors of Mycobacterial Glucosamine-1-phosphate acetyl transferase (GlmU). Secondary screen. Also on record: species or system Mycobacterium tuberculosis H37Rv.
Assay [7] deals with Streptococcus sp. 'group A'. As to the kind of experiment: growth inhibition of control SK(-) GAS strain, dose response, counter-screen for streptokinase expression inhibitor project, luminescence, kanamycin, BacTiterGlo, confirmation (AID 1900). The class given is functional, organism-based.
For another assay, the system named is Streptococcus. As to the kind of experiment: Group A Streptococcus viability loss, dose response, counter-screen for streptokinase expression inhibitor project, luminescence, BacTiterGlo (AID 1915).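 Also: potency for reduction of bacterial viability or growth.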 The class given is functional, organism-based.
The target of assay [8] is T4, Replicative DNA helicase DnaB (Mycobacterium tuberculosis, UniProt P9WMR3).
T4 sequence (P9WMR3 whole entry): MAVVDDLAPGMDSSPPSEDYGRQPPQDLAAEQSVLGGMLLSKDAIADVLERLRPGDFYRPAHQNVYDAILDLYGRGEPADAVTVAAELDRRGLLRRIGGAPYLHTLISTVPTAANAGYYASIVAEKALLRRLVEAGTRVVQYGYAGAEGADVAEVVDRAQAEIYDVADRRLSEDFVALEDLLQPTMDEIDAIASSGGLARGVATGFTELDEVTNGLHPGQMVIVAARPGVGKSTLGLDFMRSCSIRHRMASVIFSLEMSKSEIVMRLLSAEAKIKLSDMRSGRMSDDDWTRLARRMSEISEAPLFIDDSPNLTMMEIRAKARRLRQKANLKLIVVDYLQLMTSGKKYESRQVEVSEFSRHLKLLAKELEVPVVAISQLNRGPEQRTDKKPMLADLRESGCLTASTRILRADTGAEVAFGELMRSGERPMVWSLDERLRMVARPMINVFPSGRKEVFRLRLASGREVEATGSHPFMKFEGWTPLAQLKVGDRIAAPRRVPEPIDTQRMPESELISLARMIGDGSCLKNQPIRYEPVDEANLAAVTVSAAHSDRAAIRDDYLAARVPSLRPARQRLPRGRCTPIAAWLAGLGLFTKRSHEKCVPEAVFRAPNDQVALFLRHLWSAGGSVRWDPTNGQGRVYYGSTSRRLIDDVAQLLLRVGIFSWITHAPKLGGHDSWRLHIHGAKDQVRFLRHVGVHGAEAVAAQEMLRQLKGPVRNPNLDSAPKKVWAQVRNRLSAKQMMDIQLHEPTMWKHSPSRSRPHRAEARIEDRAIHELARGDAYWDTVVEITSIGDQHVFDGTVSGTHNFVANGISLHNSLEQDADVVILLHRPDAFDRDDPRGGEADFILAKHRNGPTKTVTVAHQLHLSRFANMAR
Kind of assay: DnaB intein splicing inhibitors, dose response, biochemical, cell-free fluorescence (AID 449749). Format: functional.

The target of another assay is T5, Streptokinase A (Streptococcus pyogenes serotype M1, UniProt P10520).
T5 sequence (P10520 whole entry): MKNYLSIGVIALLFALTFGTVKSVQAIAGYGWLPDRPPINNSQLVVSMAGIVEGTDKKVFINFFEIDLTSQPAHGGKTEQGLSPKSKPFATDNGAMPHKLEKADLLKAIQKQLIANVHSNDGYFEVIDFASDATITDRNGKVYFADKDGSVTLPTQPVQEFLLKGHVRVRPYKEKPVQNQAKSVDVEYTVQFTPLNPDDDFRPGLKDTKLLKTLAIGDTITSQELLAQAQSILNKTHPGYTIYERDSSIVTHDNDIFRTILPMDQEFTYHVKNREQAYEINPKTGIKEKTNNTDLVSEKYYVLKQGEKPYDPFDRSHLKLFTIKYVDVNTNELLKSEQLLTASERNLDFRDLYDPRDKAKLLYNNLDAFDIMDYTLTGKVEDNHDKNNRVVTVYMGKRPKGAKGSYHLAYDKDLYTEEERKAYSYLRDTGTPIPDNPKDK
Kind of assay: S. pyogenes streptokinase expression inhibitors, potency, dose response, plasminogen activation absorbance, OD405 (AID 1914).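 Also: secreted streptokinase activity via plasminogen activation per viability signal from cell pellet.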 Format: functional, Streptococcus pyogenes M1 GAS.

In assay [9] the target is T3, Beta-galactosidase. Format: functional.
Assay [10] addresses T6, Delta-type opioid receptor (Homo sapiens, UniProt P41143). As to the kind of experiment: HTS Image-Based Screen for Antagonists of the DOR Receptor. [Related pubchem assays (depositor defined):AID1777, AID1785, AID1786, AID2133]. Format: functional.
Assay [11] concerns the target T7, Fatty acid synthase (Homo sapiens, UniProt P49327). Kind of assay: FAS thioesterase domain inhibitors, dose response, biochemical, kinetic fluorescence intensity (AID 624326).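 Also: rate of fluorescence rise from hydrolysis of a fluorogenic O-methyl fluorescein ester substrate.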 The class given is functional.
Assay [12] concerns the target T7, Fatty acid synthase. Kind of assay: FAS thioesterase domain inhibitors, dose response, biochemical, endpoint fluorescence intensity, uHTS hits (AID 624327).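 Also: fluorescence from hydrolysis of an O-methyl fluorescein acyl ester substrate by the enzyme.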 The class given is functional.
In assay [13] the target is T6, Delta-type opioid receptor. As to the kind of experiment: HTS Image-Based Screen for Agonists of the DOR Receptor. [Related pubchem assays (depositor defined):AID1777, AID1786, AID2133]. Format: functional.
Assay [14] addresses Induced myeloid leukemia cell differentiation protein Mcl-1 (Homo sapiens, UniProt Q07820). Format: functional.
Assay [15] has as its target T8, Kappa-type opioid receptor (Homo sapiens, UniProt P41145). Format: functional.
In another assay the target is T9, Protein RecA (Mycobacterium tuberculosis, UniProt P9WHJ3).
T9 sequence (P9WHJ3 whole entry): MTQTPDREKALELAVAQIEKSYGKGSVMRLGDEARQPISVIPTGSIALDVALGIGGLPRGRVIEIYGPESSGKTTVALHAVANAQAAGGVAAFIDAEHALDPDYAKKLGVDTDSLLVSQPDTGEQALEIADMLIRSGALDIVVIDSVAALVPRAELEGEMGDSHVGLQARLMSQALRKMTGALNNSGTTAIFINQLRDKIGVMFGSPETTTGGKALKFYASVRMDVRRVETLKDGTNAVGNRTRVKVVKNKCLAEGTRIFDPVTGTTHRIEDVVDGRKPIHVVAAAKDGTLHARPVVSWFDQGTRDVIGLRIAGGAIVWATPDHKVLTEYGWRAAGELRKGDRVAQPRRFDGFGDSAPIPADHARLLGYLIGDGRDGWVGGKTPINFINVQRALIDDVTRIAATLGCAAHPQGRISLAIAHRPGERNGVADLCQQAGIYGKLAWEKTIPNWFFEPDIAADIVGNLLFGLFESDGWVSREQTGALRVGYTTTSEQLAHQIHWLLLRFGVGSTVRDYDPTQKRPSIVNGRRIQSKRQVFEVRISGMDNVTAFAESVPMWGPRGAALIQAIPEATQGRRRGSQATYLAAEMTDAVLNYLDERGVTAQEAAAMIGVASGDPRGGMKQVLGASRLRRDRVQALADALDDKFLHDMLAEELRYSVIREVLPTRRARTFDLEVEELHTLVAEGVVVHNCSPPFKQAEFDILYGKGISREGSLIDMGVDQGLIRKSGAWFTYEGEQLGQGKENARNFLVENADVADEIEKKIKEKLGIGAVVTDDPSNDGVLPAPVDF
Kind of assay: Fluorescence Cell-Free Homogeneous Dose Retest to Identify Inhibitors of RecA-Intein Splicing Activity. [Related pubchem assays (depositor defined):AID2097, AID2223, AID489010, AID492950]. Format: functional.

Another assay deals with Mu-type opioid receptor (Homo sapiens, UniProt P35372). As to the kind of experiment: HTS Image-Based Screen for Agonists of the MOR Receptor. [Related pubchem assays (depositor defined):AID1777, AID1785, AID1786, AID2133]. Format: functional.
Mu-type opioid receptor, sequence (P35372 whole entry): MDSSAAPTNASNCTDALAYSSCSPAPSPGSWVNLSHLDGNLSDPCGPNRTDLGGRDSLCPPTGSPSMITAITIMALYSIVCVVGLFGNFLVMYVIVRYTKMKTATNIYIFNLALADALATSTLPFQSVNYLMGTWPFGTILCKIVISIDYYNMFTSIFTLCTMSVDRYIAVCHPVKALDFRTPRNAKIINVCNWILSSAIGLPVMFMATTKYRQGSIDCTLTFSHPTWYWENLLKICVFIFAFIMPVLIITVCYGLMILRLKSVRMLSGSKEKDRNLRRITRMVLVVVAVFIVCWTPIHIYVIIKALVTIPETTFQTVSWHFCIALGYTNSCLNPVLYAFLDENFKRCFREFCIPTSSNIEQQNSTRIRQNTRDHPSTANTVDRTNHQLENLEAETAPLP
In assay [16] the target is T8, Kappa-type opioid receptor. The class given is functional. The source holds these as a separate data set.
Assay [17] addresses Heat shock protein HSP 90-alpha (Homo sapiens, UniProt P07900). The class given is functional, organism-based.

T8 sequence (P41145 whole entry): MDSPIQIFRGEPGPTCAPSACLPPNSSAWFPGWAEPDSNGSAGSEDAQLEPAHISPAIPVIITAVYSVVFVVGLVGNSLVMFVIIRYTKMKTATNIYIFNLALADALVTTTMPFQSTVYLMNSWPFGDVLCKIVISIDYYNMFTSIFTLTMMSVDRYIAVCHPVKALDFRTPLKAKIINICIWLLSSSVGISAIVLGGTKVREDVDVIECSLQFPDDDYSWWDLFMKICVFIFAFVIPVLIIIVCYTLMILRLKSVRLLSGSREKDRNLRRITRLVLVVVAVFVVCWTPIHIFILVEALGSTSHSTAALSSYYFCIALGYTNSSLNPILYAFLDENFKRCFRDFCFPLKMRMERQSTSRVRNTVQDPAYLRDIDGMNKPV
T6 sequence (P41143 whole entry, the tested form may be a part): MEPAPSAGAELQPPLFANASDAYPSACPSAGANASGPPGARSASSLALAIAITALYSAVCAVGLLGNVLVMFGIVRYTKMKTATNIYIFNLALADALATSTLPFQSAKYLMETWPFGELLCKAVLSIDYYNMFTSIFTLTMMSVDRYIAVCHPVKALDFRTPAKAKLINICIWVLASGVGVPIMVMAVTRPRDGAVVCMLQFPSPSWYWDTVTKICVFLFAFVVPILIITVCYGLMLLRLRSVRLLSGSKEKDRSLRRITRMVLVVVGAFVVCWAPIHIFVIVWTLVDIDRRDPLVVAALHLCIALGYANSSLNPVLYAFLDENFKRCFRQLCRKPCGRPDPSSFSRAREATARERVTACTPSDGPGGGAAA
Beta Lactamase, sequence (Q932Y6 whole entry, the tested form may be a part): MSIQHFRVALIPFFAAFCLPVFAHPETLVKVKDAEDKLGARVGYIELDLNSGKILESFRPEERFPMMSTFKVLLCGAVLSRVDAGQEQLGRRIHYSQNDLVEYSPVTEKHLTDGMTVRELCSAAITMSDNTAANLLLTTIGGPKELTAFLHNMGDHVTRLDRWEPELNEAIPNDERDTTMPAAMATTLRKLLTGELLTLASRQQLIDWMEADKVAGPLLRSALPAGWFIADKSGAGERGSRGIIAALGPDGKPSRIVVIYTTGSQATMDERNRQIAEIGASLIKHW
Type-1 angiotensin II receptor, sequence (P30556 whole entry): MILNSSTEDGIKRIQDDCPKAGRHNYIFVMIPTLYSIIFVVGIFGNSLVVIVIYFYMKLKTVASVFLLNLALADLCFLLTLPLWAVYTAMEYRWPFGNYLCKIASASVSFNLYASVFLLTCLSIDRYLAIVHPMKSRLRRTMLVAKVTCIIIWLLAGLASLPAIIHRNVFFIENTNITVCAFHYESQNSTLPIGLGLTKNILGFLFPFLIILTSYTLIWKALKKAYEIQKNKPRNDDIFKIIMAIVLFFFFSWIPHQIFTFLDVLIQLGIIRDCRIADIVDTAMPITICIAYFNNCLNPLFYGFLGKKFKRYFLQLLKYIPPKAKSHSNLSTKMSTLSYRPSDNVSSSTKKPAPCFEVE
Induced myeloid leukemia cell differentiation protein Mcl-1, sequence (Q07820 whole entry): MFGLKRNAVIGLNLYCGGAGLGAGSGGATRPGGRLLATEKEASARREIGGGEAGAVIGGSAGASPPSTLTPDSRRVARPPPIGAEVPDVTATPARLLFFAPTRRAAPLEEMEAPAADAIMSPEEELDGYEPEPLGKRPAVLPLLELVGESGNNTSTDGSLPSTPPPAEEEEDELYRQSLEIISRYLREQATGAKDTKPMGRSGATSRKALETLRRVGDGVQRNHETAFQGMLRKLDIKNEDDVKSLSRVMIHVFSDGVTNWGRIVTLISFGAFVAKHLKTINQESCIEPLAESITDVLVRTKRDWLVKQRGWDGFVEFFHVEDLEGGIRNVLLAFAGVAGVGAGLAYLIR

As to `Cc1cccc(NC(=O)c2ccc(NCCc3ccccc3)c([N+](=O)[O-])c2)c1`, the results for the EC50 in assay [1] and in assay [2] were 17.9 µM (active) and > 99 µM (inactive), respectively.

Take `COc1c(N2CCN(C(S)=NCc3ccccc3)C(C)C2)c(F)cc2c(=O)c(C(=O)O)cn(C3CC3)c12` (configuration not stated): the IC50 was 14.9 µM (not active) at NS3 and 5.55 µM (active) in assay [3]. Besides, on DNA topoisomerase, the AC50 (commonly the midpoint of the concentration-response curve, whichever way the signal moves) is 27.8 µM (active).

In the case of `CC(=O)c1ccc(NC(=O)CCC(=O)OCC(=O)c2cccc([N+](=O)[O-])c2)cc1`, in [4], the IC50 is 34.5 µM (not active). Besides, the EC50 (usually the concentration needed to bring the measured effect to its halfway point) on Beta-galactosidase [5] is > 40 µM (inactive).

On to `COc1ccc2c(c1)oc(=O)c1cc(OC)ccc12`, for which the AC50 in the assay with HeLa is 46.8 µM (active).

For `Nc1c(C(=O)Nc2ccccc2F)sc2nc(-c3cccnc3)ccc12`, the IC50 at Beta Lactamase was 14 µM (inactive); in the assay on CHO, 21.7 µM (inactive).

On to `Cc1ccc(CSC2=Nc3ccccc3C3=NC(=O)CN23)cc1`, for which the AC50 at DNA topoisomerase was 2.02 µM (active).

In the case of `Cc1nnc(Sc2cc(NCCCO)c([N+](=O)[O-])c3nonc23)s1`, the IC50 in assay [6] was 77.8 µM (active); at Beta Lactamase, 10.9 µM (inactive); in assay [10], > 32 µM (inactive); at Fatty acid synthase [11] it was 3.99 µM (active); in the assay with CHO, 3.37 µM (active); at Fatty acid synthase [12], 3.78 µM (active). Further, the IC50 in assay [14] was 3.11 µM (active); in assay [15], above 32 µM; in [16], 6.15 µM (active). In addition, the EC50 in assay [7] was 6.33 µM (active); in the assay on Streptococcus, 7.62 µM (active); on Streptokinase A, 21.2 µM (inconclusive); on Beta-galactosidase [9], > 31.5 µM (inactive); in assay [13], > 32 µM (inactive); on Protein RecA, 1.85 µM (active). Further, the EC50 at Mu-type opioid receptor was > 32 µM (inactive). Also, the AC50 in [8] is 2.07 µM (active).

For `c1ccc2cc(C3CCCCC3)ncc2c1`, in the assay with HeLa, the half-maximal activity concentration (AC50) was 36.7 µM (active).

Consider `COC[C@H]1OC(=O)c2coc3c2[C@@]1(C)C1=C(C3=O)[C@@H]2CCC(=O)[C@@]2(C)C[C@H]1OC(C)=O` [WORTMANNIN], for which the EC50 in assay [1] and in assay [2] was > 99 µM (inactive) throughout. In addition, the AC50 in assay [17] is 0.363 µM (active).

For the origin of these results see ChEMBL document CHEMBL1201862, “PubChem BioAssay data set” (2004).
